Patent publication US9631050B2, “Antimicrobial cationic polycarbonates” (International Business Machines Corporation, priority 2013, dated 2017)

Tested on: mammalian red blood cells
Procedure: HC50 is defined as the concentration (in mg/L) of cationic polymer that causes 50% of mammalian red blood cells to undergo hemolysis. HC50 values of 500 mg/L or higher are desirable.
Fresh rabbit blood cells or rat blood cells were subjected to 25× dilution with phosphate buffered saline (PBS) to obtain an approximate 4% v/v suspension for use in this experiment. Red blood cell suspension (300 microliters) was added to each tube containing an equal volume (300 microliters) of polymer solution in PBS (with final polymer concentrations ranging from 3.9-500 mg/L). The tubes were then incubated at 37° C. for 1 hour before they were centrifuged at 1000×g for 5 min. Aliquots (100 microliters) of supernatant were transferred to each well of a 96-well plate and analyzed for hemoglobin release at 576 nm using a microplate reader (TECAN, Switzerland). Red blood cells suspension incubated with PBS was used as negative control. Absorbance of red blood cells lyzed with 0.1% v/v Triton X-100 was used as the positive control and taken to be 100% hemolytic. Percentage of hemolysis was calculated using the following formula: Hemolysis (%)=[(O.D.576 nm of treated sample−O.D.576 nm of negative control)/(O.D.576 nm of positive control−O.D.576 nm of negative control)]×100. Data are expressed as mean±standard deviations of 4 replicates.

## Butyl imidazole [Example 36]
  HC50: 250 mg/L
